Drawing on ChEMBL document CHEMBL2069170, “Geranylphenazinediol, an acetylcholinesterase inhibitor produced by a Streptomyces species” (J Nat Prod, 2012), this text covers IC50 and Activity for nine compounds.

Data set [1] addresses Acetylcholinesterase (Homo sapiens, UniProt P22303). The data set is described as follows: Inhibition of human AChE pre-incubated for 10 mins before acetylthiocholine iodide substrate addition.
A short description of data set [2]: Toxicity against human KIF5 cells incubated for 24 hrs by CellTiter Blue cell viability assay. The data set is classed as cell-based.
Data set [3] deals with Bacillus subtilis. Put plainly: Antimicrobial activity against Bacillus subtilis DSM 347 incubated for 5 hrs by resazurin dye based assay. The data set is classed as functional, organism-based. To be noted: DSM 347, 5 h.
The test system of data set [4] is Candida albicans. Put plainly: Antimicrobial activity against Candida albicans DSM 1386 incubated for 5 hrs by resazurin dye based assay. It is filed as functional, organism-based.
Data set [5] concerns Xanthomonas campestris. The data set is described as follows: Antimicrobial activity against Xanthomonas campestris DSM 2405 incubated for 6 hrs by resazurin dye based assay. The data set is classed as functional, organism-based. (The colour change of resazurin is a common sign of viable cells or microbes.)

Structures are written as SMILES. Active and inactive are the calls of the source. The calls are words filed in the database; no cut-off is given here. Some results are limits rather than exact numbers.

Chain of Acetylcholinesterase (P22303 whole entry): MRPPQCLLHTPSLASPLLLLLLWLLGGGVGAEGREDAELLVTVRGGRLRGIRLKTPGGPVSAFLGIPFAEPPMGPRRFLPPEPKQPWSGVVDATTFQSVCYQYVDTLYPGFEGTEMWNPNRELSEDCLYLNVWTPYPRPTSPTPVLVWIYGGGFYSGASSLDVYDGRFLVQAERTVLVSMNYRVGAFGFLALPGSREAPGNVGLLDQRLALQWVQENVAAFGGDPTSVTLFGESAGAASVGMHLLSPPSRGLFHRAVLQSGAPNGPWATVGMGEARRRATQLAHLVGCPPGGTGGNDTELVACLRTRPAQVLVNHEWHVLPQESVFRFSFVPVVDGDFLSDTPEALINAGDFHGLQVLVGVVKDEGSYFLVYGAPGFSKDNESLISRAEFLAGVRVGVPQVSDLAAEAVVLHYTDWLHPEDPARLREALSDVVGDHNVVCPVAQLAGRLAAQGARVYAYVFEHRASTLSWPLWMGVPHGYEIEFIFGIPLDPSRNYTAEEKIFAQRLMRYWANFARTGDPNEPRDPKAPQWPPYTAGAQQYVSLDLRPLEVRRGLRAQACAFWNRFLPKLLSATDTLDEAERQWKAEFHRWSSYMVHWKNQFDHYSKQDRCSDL

For the compound `O=C(O)c1cccc2nc3ccccc3nc12` [PHENAZINE-1-CARBOXYLIC ACID], the figures for the IC50 in data set [1] and in data set [3] were above 50 µM and above 150 µM, respectively. Moreover, the IC50 at 24 h in data set [2] was above 50 µM.

Turning to `Oc1cccc2nc3c(O)cccc3nc12`, the values for the half-maximal inhibitory concentration (IC50) in data set [1] and in data set [3] were 4.52 µM and 22 µM, respectively. Besides, the IC50 at 24 h in data set [2] was above 50 µM.

Consider `CC(C)=CCC/C(C)=C/Cc1ccc(O)c2nc3cccc(O)c3nc12` [GERANYLPHENAZINEDIOL], for which the result in data set [4] and in data set [5] was inactive. Moreover, the IC50 turned out to be 2.62 µM in data set [1] and 24 µM in data set [3]. The compound further displayed a 50% inhibitory concentration (IC50) at 24 h in data set [2] above 50 µM.

Regarding `CC(C)=CCc1cc(=O)cc2n(C)c3cccc(C(=O)O)c3nc1-2` [ENDOPHENAZINE B], the IC50 in data set [1] was above 50 µM; in data set [3], above 150 µM. In data set [2], this compound registered an IC50 at 24 h above 50 µM.

`CC(C)=CCc1cccc2nc3cccc(C(=O)O)c3nc12` [ENDOPHENAZINE A]: the half-inhibitory concentration (IC50) in data set [1] is above 50 µM; in data set [3], 111 µM. In data set [2], the IC50 at 24 h was above 10 µM.

As to `CC(=O)Oc1cccc2nc3c(OC(C)=O)ccc(C/C=C(\C)CCC=C(C)C)c3nc12` [DIACETYLGERANYLPHENAZINEDIOL], the outcome in data set [4] and in data set [5] was inactive. In addition, the IC50 in data set [1] turned out to be 2.01 µM; in data set [3], 13 µM. The same compound displayed an IC50 at 24 h in data set [2] above 50 µM.

As to `Oc1ccc2nc3ccccc3nc2c1`, the figures for the IC50 in data set [1] and in data set [3] were above 50 µM and 75 µM, respectively. This compound also had an IC50 at 24 h in data set [2] above 50 µM.

As to `O=C(N[C@H](CO)[C@H](O)c1ccc([N+](=O)[O-])cc1)C(Cl)Cl` [CHLORAMPHENICOL], the IC50 in data set [3] stood at 1.45 µM.

For the compound `CC/C(=C(\c1ccccc1)c1ccc(OCCN(C)C)cc1)c1ccccc1` [TAMOXIFEN], the IC50 at 24 h in data set [2] stood at 23.8 µM. This lies in the double-digit micromolar range.

Usually IC50 stands for the concentration needed to halve the response being measured. Higher therefore signals lower potency.
